Measurements taken from PubChem BioAssay (NCI).
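Dose response: 5 concentrations. Exposure: 48 h. Format: 96-well plates. Endpoint: linear interpolation; highest concentration if not reached. TGI is the concentration that stops growth completely.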

Legend:
Test in all cases: NCI anticancer screen, dose series, 48 h
[1] = system: MDA-N
[2] = system: SK-OV-3 ovarian
[3] = system: EKVX NSCLC
[4] = system: HS 578T breast
[5] = system: MALME-3M melanoma
[6] = system: SK-MEL-28 melanoma
[7] = system: HL-60(TB) leukemia
[8] = system: SR leukemia
[9] = system: RPMI-8226 leukemia
[10] = system: RXF 393 renal
[11] = system: OVCAR-8 ovarian
[12] = system: ACHN renal
[13] = system: TK-10 renal
[14] = system: IGROV1 ovarian
[15] = system: DU-145 prostate
[16] = system: OVCAR-5 ovarian
[17] = system: MDA-MB-435

SMILES | TGI [1] | TGI [2] | TGI [3] | TGI [4] | TGI [5] | TGI [6] | TGI [7] | TGI [8] | TGI [9] | TGI [10] | TGI [11] | TGI [12] | TGI [13] | TGI [14] | TGI [15] | TGI [16] | TGI [17]
COc1nn(Cc2ccccn2)c2ccc([N+](=O)[O-])cc12 | 95.5 µM | > 100 µM | > 100 µM | 88 µM | > 100 µM | > 100 µM | 64.1 µM | 98.4 µM | > 100 µM | > 100 µM | > 100 µM | > 100 µM | > 100 µM | > 100 µM | > 100 µM | > 100 µM | > 100 µM
O=C(Nc1ccc(Cl)cc1)c1cc(S(=O)(=O)Nc2n[nH]c(Nc3ccc4ccccc4c3)n2)c(SSc2cc(Cl)c(C(=O)Nc3ccc(Cl)cc3)cc2S(=O)(=O)Nc2n[nH]c(Nc3ccc4ccccc4c3)n2)cc1Cl | > 84.2 µM | 66.5 µM | > 100 µM | > 100 µM | 43 µM | 46.9 µM | > 63 µM | > 68 µM | > 74.7 µM | 79.9 µM | > 71.9 µM | 53.9 µM | 60.8 µM | 56.1 µM | > 74.4 µM | 50.5 µM | > 80.3 µM
NC(=O)NC1NC(=O)NC1=O (configuration not stated) | > 100 µM | > 100 µM | > 100 µM | > 100 µM | > 100 µM | > 100 µM | > 100 µM | > 100 µM | > 100 µM | > 100 µM | > 100 µM | > 100 µM | > 100 µM | > 100 µM | > 100 µM | > 100 µM | > 100 µM
CC(=O)c1c(-c2ccc(Cl)cc2)c(-c2ccc(Cl)cc2)n[nH]c1=O | > 100 µM | > 100 µM | > 100 µM | > 100 µM | 79 µM | > 100 µM | 68.8 µM | > 100 µM | 55.4 µM | > 100 µM | > 100 µM | 66.1 µM | > 100 µM | > 100 µM | > 100 µM | > 100 µM | > 100 µM
Cn1c(-c2cccs2)cc(-c2cccs2)c1-c1cccs1 | > 100 µM | > 100 µM | > 100 µM | > 100 µM | > 100 µM | > 100 µM | > 100 µM | > 100 µM | > 100 µM | > 100 µM | > 100 µM | > 100 µM | > 100 µM | > 100 µM | > 100 µM | > 100 µM | > 100 µM
CC1=NN(c2cccc(S(=O)(=O)O)c2)C2(C1)C(Cl)C(=O)N2c1nc2ccccc2s1 (configuration not stated) | 27.7 µM | 24.2 µM | 26.7 µM | > 80.7 µM | 17.3 µM | 36.1 µM | 7.16 µM | 17.4 µM | 4.47 µM | 22.8 µM | 19.1 µM | 18.4 µM | 27.3 µM | 3.5 µM | 25.2 µM | 28.1 µM | 21.2 µM
CCN(CCCl)c1cc(CN(C)C)cc(NC(=O)c2ccc(C(=O)Nc3cc(CN(C)C)cc(N(CC)CCCl)c3)cc2)c1 | 0.594 µM | 5.82 µM | 5.58 µM | 0.761 µM | 0.88 µM | 0.536 µM | 1.09 µM | 18.1 µM | 1.02 µM | 0.109 µM | 1.63 µM | 0.994 µM | 2.57 µM | 0.732 µM | 13.7 µM | 0.966 µM | 0.48 µM
CC12Nc3c(Cl)cc(Cl)cc3N1C(=O)c1ccccc12 (configuration not stated) | > 100 µM | > 100 µM | > 100 µM | > 100 µM | > 100 µM | > 100 µM | > 100 µM | > 100 µM | > 100 µM | > 100 µM | > 100 µM | > 100 µM | > 100 µM | > 100 µM | > 100 µM | > 100 µM | > 100 µM
O=C(CSc1ncccn1)N/N=C/c1ccccc1OCc1ccccc1 | 60.9 µM | > 100 µM | 83.1 µM | 95.3 µM | > 100 µM | > 100 µM | 47.5 µM | 29.5 µM | 43.6 µM | 55.6 µM | > 100 µM | > 100 µM | 62.4 µM | > 100 µM | 96.7 µM | > 100 µM | 31.5 µM
CN1CCCC2C(c3ccccc3)C(C3=NCCCC3)C(c3ccccc3)CC21 (configuration not stated) | 41.4 µM | > 100 µM | > 100 µM | 96.7 µM | 37.6 µM | 36.2 µM | > 100 µM | > 100 µM | 54.1 µM | > 100 µM | > 100 µM | > 100 µM | > 100 µM | > 100 µM | > 100 µM | > 100 µM | 36.6 µM
COc1ccc(CNc2ccn(C3OC(CO)C(O)C3O)c(=O)n2)cc1 (configuration not stated) | > 100 µM | > 100 µM | > 100 µM | > 100 µM | > 100 µM | > 100 µM | 83.3 µM | > 100 µM | > 100 µM | > 100 µM | > 100 µM | > 100 µM | > 100 µM | > 100 µM | > 100 µM | > 100 µM | > 100 µM
